# In article PMC6044507 (ACS Omega, 2018):
# “Also recorded” adds a separate entry of the source.
# Tests used:
# [1] = metabolic stability in human liver microsomes; assay type: in vitro ADME; conditions: for metabolic stability, in words: human liver microsomes 0.5 mg/mL, compound 1 μM; for degradation after an incubation period of 60 min: human liver microsomes
# [2] = test system: CHO wild-type (wt) cells; test: cAMP accumulation assay in wild-type CHO cells not expressing GPR84
# [3] = molecular target: T1, human GPR84 (Homo sapiens, UniProt Q9NQS5); test: cell-based; assay type: cell-based; conditions: for Emax: read-out: efficacy (Emax), cAMP assay; for EC50: CHO cells expressing human GPR84; for EC50 / percent receptor activation at 10 μM, cAMP assay: forskolin 10 μM; for percent receptor activation at 10 μM, cAMP assay: compound 10 μM
# Target sequence in this assay (Q9NQS5 whole entry): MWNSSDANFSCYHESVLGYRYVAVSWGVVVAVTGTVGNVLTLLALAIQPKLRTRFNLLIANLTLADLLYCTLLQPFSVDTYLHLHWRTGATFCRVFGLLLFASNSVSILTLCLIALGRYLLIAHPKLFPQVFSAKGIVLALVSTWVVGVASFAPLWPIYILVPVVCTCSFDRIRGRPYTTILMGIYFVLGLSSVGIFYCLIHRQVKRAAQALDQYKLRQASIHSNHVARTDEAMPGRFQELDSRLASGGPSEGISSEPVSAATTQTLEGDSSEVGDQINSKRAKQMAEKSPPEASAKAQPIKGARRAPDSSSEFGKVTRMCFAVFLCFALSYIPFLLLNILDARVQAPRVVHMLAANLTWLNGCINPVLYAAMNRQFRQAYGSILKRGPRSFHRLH
# [4] = molecular target: T1, human GPR84; test: cell-based; conditions: EC50 ± SEM, β-arrestin assay, CHO cells expressing human GPR84
# Target sequence in this assay (Q9NQS5 whole entry): as above
# Target sequence in this assay (P32121 whole entry partner): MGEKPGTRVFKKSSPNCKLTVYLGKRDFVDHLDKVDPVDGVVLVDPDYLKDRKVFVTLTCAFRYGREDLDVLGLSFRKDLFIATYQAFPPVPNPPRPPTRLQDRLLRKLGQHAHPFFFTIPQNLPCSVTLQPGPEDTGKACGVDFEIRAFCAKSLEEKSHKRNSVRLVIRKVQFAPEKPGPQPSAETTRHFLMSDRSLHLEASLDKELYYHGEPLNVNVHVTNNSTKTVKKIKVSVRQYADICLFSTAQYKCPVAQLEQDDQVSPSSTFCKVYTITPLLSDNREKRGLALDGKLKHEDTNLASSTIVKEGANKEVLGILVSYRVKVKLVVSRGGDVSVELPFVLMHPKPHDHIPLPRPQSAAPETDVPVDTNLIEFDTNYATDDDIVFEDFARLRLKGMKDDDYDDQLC
# [5] = molecular target: T1, human GPR84; conditions: compound 10 μM
# Target sequence in this assay (Q9NQS5 whole entry): as the sequence (Q9NQS5 whole entry) above
# Target sequence in this assay (P32121 whole entry partner): as the sequence (P32121 whole entry partner) above
# [6] = test system: human GPR84; test: pathway bias calculation, Gi; assay type: cell-based; conditions: corresponding to the bias factor
# [7] = test system: rodents; conditions: orally, acute exposure; cited from earlier work
# [8] = test system: X-linked inhibitor of apoptosis; conditions: read-out: IC50, X-linked inhibitor of apoptosis; cited from earlier work
# [9] = high concentrations of up to 100 μM
# [10] = both, human, pooled human liver microsomes
Emax [3],"EC50 ([3]; EC50 ± SEM, cAMP assay)",EC50 [4],SMILES,further results
104%,–,–,"CCCCCCCCNc1cc(=O)[nH]c(=O)[nH]1 [Compound 4, 6-octylaminouracil]","effect in nontransfected CHO cells (cAMP assay) [2]: no effect; effect on forskolin-induced cAMP accumulation in CHO wt cells ([2]; concentrations of up to 1 μM): None of the tested compounds showed any significant effect; effect on forskolin-induced cAMP accumulation in CHO wt cells [2, 9]: no effect"
127%,–,–,"CCCCCCNc1cc(=O)[nH]c(=O)[nH]1 [Compound 20, 6-Hexylamino-2,4(1H,3H)-pyrimidinedione]","effect on forskolin-induced cAMP accumulation in CHO wt cells ([2]; concentrations of up to 1 μM): None of the tested compounds showed any significant effect; effect on forskolin-induced cAMP accumulation in CHO wt cells [2, 9]: no effect; metabolic stability, in words [1]: metabolically stable; also recorded: highly stable; degradation after an incubation period of 60 min [1]: negligible; degradation after 30 min of incubation, in words ([1]; human microsomes, 30 min): no degradation"
105%,–,2100 ± 600 nM,"O=c1cc(NCCCCCCCO)[nH]c(=O)[nH]1 [Compound 28, 6-(7-Hydroxyheptylamino)-2,4(1H,3H)-pyrimidinedione]","EC50 ([3]; EC50, cAMP assay): 1980 nM"
72%,1900 ± 680 nM,> 10000 nM,"CCCCCCCCCCNc1cc(=O)n(C)c(=O)[nH]1 [Compound 33, 6-Decylamino-3-methyl-2,4(1H,3H)-pyrimidinedione]","percent receptor activation at 10 μM, β-arrestin assay [5]: 8%"
107%,–,640 ± 20 nM,"CCCCCCCCN(C)c1cc(=O)[nH]c(=O)[nH]1 [Compound 38, 6-(N-Methyloctylamino)-2,4(1H,3H)-pyrimidinedione]",–
136%,–,120 ± 50 nM,"CCc1ccc(CCNc2cc(=O)[nH]c(=O)[nH]2)cc1 [Compound 49, 6-(p-Ethylphenylethylamino)-2,4(1H,3H)-pyrimidinedione]","effect on forskolin-induced cAMP accumulation in CHO wt cells ([2]; concentrations of up to 1 μM): None of the tested compounds showed any significant effect; EC50 ([3]; EC50, cAMP assay): < 10 nM"
125%,130 ± 10 nM,300 ± 100 nM,"O=c1cc(NCCc2cccc(Cl)c2)[nH]c(=O)[nH]1 [Compound 54, 6-(m-Chlorophenylethylamino)-2,4(1H,3H)-pyrimidinedione]",–
–,–,> 10000 nM,"O=c1cc(NCCc2c[nH]c3ccccc23)[nH]c(=O)[nH]1 [Compound 62, 6-(1H-Indol-3-ylethylamino)-2,4(1H,3H)-pyrimidinedione]","percent receptor activation at 10 μM, β-arrestin assay [5]: 14%"
112%,–,–,"O=c1cc(NCCc2cccs2)[nH]c(=O)[nH]1 [Compound 63, 6-(Thiophen-2-yl)ethylamino-2,4(1H,3H)-pyrimidinedione]",–
114%,130 ± 10 nM,600 ± 160 nM,"O=c1cc(N2CCC(Cc3ccccc3)CC2)[nH]c(=O)[nH]1 [Compound 67, 6-(4-Benzylpiperidin-1yl)-2,4(1H,3H)-pyrimidinedione]",–
114%,2000 ± 600 nM,–,"CCCCCCCCNc1[nH]c(=O)[nH]c(=O)c1Br [Compound 73, 5-Bromo-6-octylamino-2,4(1H,3H)-pyrimidinedione]",–

# The remaining lines, values behind:
SMILES,Emax [3],"EC50 ([3]; EC50 ± SEM, cAMP assay)",EC50 [4],further results
"CCCCCCSc1nc(O)cc(O)n1 [2-hexylthiopyrimidine-4,6-diol (5), 2-hexylthiopyrimidine-4,6-diol, reference compound]",–,–,–,"drug disappeared after 30 min of incubation ([1]; human microsomes, 30 min): ~40%"
"CCCCCNc1cc(=O)[nH]c(=O)[nH]1 [Compound 19, 6-Pentylamino-2,4(1H,3H)-pyrimidinedione]",106%,460 ± 130 nM,4800 ± 1300 nM,–
"CCCCCCCCCNc1cc(=O)[nH]c(=O)[nH]1 [Compound 22, 6-Nonylamino-2,4(1H,3H)-pyrimidinedione]",118%,–,34 ± 7 nM,"half-life at 1 μM [1, 10]: 2 min; microsomal CLint at 1 μM [1, 10]: 880 µL/min/mg"
"Oc1cc(NCCc2ccccc2)nc(O)n1 [Compound 42, 6-(2-Phenylethylamino)-2,4(1H,3H)-pyrimidinedione]",–,–,–,"metabolic stability, in words [1]: highly stable; degradation after an incubation period of 60 min [1]: negligible; degradation after 30 min of incubation, in words ([1]; human microsomes, 30 min): no degradation"
"Cc1ccc(CCNc2cc(=O)[nH]c(=O)[nH]2)cc1 [Compound 45, 6-(p-Methylphenylethylamino)-2,4(1H,3H)-pyrimidinedione]",114%,13 ± 1 nM,320 ± 150 nM,–
"O=c1cc(NCCc2ccc(F)cc2)[nH]c(=O)[nH]1 [Compound 46, 6-(p-Fluorophenylethylamino)-2,4(1H,3H)-pyrimidinedione]",111%,65 ± 14 nM,2000 ± 800 nM,–
"O=c1cc(NCCc2ccc(Cl)cc2)[nH]c(=O)[nH]1 [Compound 47, 6-((p-chlorophenylethyl)amino)-2,4(1H,3H)-pyrimidinedione]",137%,–,–,effect on forskolin-induced cAMP accumulation in CHO wt cells ([2]; concentrations of up to 1 μM): None of the tested compounds showed any significant effect; preference for Gi coupling versus β-arrestin recruitment [6]: 79 fold
"O=c1cc(NCCc2ccc(Br)cc2)[nH]c(=O)[nH]1 [Compound 48, 6-(p-Bromophenylethylamino)-2,4(1H,3H)-pyrimidinedione]",127%,–,–,"effect on forskolin-induced cAMP accumulation in CHO wt cells ([2]; concentrations of up to 1 μM): None of the tested compounds showed any significant effect; preference for Gi coupling versus β-arrestin recruitment [6]: 20 fold; metabolic stability, in words [1]: metabolically stable; also recorded: highly stable; degradation after an incubation period of 60 min [1]: negligible; degradation after 30 min of incubation, in words ([1]; human microsomes, 30 min): no degradation"
"COc1ccc(CCNc2cc(=O)[nH]c(=O)[nH]2)cc1 [Compound 50, 6-(p-Methoxyphenylethylamino)-2,4(1H,3H)-pyrimidinedione]",111%,57 ± 21 nM,760 ± 370 nM,–
"Cc1cccc(CCNc2cc(=O)[nH]c(=O)[nH]2)c1 [Compound 52, 6-(m-Methylphenylethylamino)-2,4(1H,3H)-pyrimidinedione]",134%,79 ± 25 nM,780 ± 220 nM,–
"O=c1cc(NCCc2cccc(Br)c2)[nH]c(=O)[nH]1 [Compound 55, 6-(m-Bromophenylethylamino)-2,4(1H,3H)-pyrimidinedione]",147%,64 ± 5 nM,190 ± 30 nM,–
"O=c1cc(NCCc2ccccc2Cl)[nH]c(=O)[nH]1 [Compound 58, 6-(o-Chlorophenylethylamino)-2,4(1H,3H)-pyrimidinedione]",122%,100 ± 20 nM,1300 ± 100 nM,–
O=c1cc(NCCc2ccccc2Br)[nH]c(=O)[nH]1 [Compound 59],–,–,–,"percent receptor activation at 10 μM, cAMP assay [3]: 19%"
"COc1ccc(CCNc2cc(=O)[nH]c(=O)[nH]2)cc1OC [Compound 60, 6-(m,p-Dimethoxyphenethylamino)-2,4(1H,3H)-pyrimidinedione]",116%,810 ± 230 nM,> 10000 nM,"percent receptor activation at 10 μM, β-arrestin assay [5]: 28%"
"O=c1cc(NCCc2ccc(Cl)cc2Cl)[nH]c(=O)[nH]1 [Compound 61, 6-(o,p-Dichlorophenethylamino)-2,4(1H,3H)-pyrimidinedione]",113%,44 ± 4 nM,82 ± 35 nM,–
"O=c1cc(NCCOc2ccccc2)[nH]c(=O)[nH]1 [Compound 64, 6-(2-Phenoxyethylamino)-2,4(1H,3H)-pyrimidinedione]",113%,100 ± 50 nM,730 ± 130 nM,–
"O=c1cc(NCCCOc2ccccc2)[nH]c(=O)[nH]1 [Compound 65, 6-(3-Phenoxypropylamino)-2,4(1H,3H)-pyrimidinedione]",107%,73 ± 5 nM,–,–
O=c1cc(N2CCC(c3ccccc3)CC2)[nH]c(=O)[nH]1 [Compound 66],–,–,–,"agonistic activity at GPR84 in cAMP assay, in words [3]: inactive; percent receptor activation at 10 μM, cAMP assay [3]: 13%"
"O=c1cc(N2CCN(c3ccc(Cl)cc3)CC2)[nH]c(=O)[nH]1 [Compound 68, 6-[4-(p-Chlorophenyl)-1-piperazinyl]-2,4(1H,3H)-pyrimidinedione]",117%,–,1800 ± 200 nM,–
COc1ccccc1N1CCN(c2cc(=O)[nH]c(=O)[nH]2)CC1 [Compound 69],53%,38 ± 7 nM,–,–
"O=c1cc(N2CCN(Cc3cccc4ccccc34)CC2)[nH]c(=O)[nH]1 [Compound 71, 6-[4-(1-Naphthylmethyl)-1-piperazinyl]-2,4(1H,3H)-pyrimidinedione]",137%,150 ± 40 nM,–,–
CCCCCCNc1[nH]c(=O)[nH]c(=O)c1Br [Compound 72],123%,7400 ± 1600 nM,–,–
"O=c1[nH]c(NCCc2ccc(Br)cc2)c(Br)c(=O)[nH]1 [Compound 74, 5-Bromo-6-(p-bromophenylethylamino)-2,4(1H,3H)-pyrimidinedione]",114%,–,6700 ± 1800 nM,–
O=c1[nH]c(NCCCc2ccccc2)c(Br)c(=O)[nH]1 [Compound 75],–,–,–,"percent receptor activation at 10 μM, cAMP assay [3]: 15%"
CCCCCCNc1[nH]c(=O)[nH]c(=O)c1N=O [Compound 76],120%,7700 ± 500 nM,–,–
"CCCCCCCNc1[nH]c(=O)[nH]c(=O)c1N=O [Compound 77, 6-Heptylamino-5-nitroso-2,4(1H,3H)-pyrimidinedione]",104%,500 ± 50 nM,–,–
O=Nc1c(NCCc2ccccc2)[nH]c(=O)[nH]c1=O [Compound 79],–,–,–,"percent receptor activation at 10 μM, cAMP assay [3]: 32%"
"CCCCCCCCCCCC1=C(O)C(=O)C=C(O)C1=O [embelin (6), embelin]",–,–,–,dose found to be safe [7]: up to 3 g/kg; IC50 [8]: 4100 nM
"COc1ccccc1N1CCN(CCCNc2cc(=O)n(C)c(=O)n2C)CC1 [urapidil, reference compound]",–,–,–,"percent receptor activation at 10 μM, cAMP assay [3]: 7%"
